Laboratory results taken from patent publication EP0209237A2, “Vinyl-glycyl-amino-beta-lactam derivatives” (BEECHAM GROUP PLC, priority 1985, dated 1987).
Converted amounts (≈) assume the structure as drawn. Like-named read-outs stand apart in the source and are kept apart here.

Tests used:
[1] = Squirrel monkey plasma levels; type: in vivo; settings: for concentration at 0.25 h: 15 minutes, read-out: Plasma Levels, Time in Minutes 15; for concentration at 0.5 h: 30 minutes, read-out: Plasma Levels, Time in Minutes 30; for concentration at 1 h: 60 minutes, read-out: Plasma Levels, Time in Minutes 60; for concentration at 2 h: 120 minutes, read-out: Plasma Levels, Time in Minutes 120; for concentration at 4 h: 240 minutes, read-out: Plasma Levels, Time in Minutes 240; for concentration at 6 h: 360 minutes, read-out: Plasma Levels, Time in Minutes 360; for AUC: read-out: Area under the curve
S.pyogenes CN 10 = test: Minimum Inhibitory Concentration (MIC), agar dilution; type: cell-based; settings: 5% v/v horse blood agar, two-fold dilutions, read after 24 hours; unit assumed
Experimental: (§1) The following Table gives Minimum Inhibitory Concentration (MIC) values for some of the compounds of the invention against S.pyogenes CN 10 and E.coli NCTC 10418. The E. coli was grown in tryptone soya broth and the S. pyogenes was grown in Todd Hewitt broth. The microorganisms were grown for 24hours and lul samples were then inoculated on to agar plates (comprising 5% v/v live horse blood agar) to which had been added the compounds of the invention at a series of two-fold dilutions.

E.coli NCTC 10418 = test: as above; type: cell-based; settings: 5% v/v horse blood agar, two-fold dilutions, read after 24 hours; unit assumed
Experimental: as §1

S.agalactiae 2798 [2] = test: CD50, protection of mice infected with a lethal inoculum; type: in vivo; settings: S.agalactiae 2798, p.o.
Excerpt: (§2) The following Table gives CD50 values obtained after infecting groups of mice with a lethal inoculum of various bacteria and treating the mice with the compounds quoted. The CD50 value then represents the amount of compound necessary to protect 50% of the animals.

E.coli 96 R- [3] = test: as above; type: in vivo; settings: Escherichia coli, 96R, read-out: Total CD50
Excerpt: as §2

S.aureus Smith [4] = test: as above; type: in vivo
Excerpt: as §2

S.agalactiae 2798 [5] = test: MIC against the infecting strain (Table 4); type: cell-based; settings: Streptococcus agalactiae
E.coli 96 R- [6] = test: MIC against the infecting strain (Table 4); type: cell-based; settings: Escherichia coli
S.aureus Smith [7] = test: MIC against the infecting strain (Table 4); type: cell-based; settings: Staphylococcus aureus

SMILES | MIC S. pyogenes CN 10 (S.pyogenes CN 10) [µg/mL] | MIC E. coli NCTC 10418 (E.coli NCTC 10418) [µg/mL] | further results
CC1(C)S[C@@H]2[C@H](NC(=O)[C@H](N)c3ccc(O)cc3)C(=O)N2[C@H]1C(=O)O [Amoxycillin, reference compound] | – | – | concentration at 0.25 h [1]: 4800 ng/mL; concentration at 0.5 h [1]: 9700 ng/mL; concentration at 1 h [1]: 12600 ng/mL; concentration at 2 h [1]: 6700 ng/mL; concentration at 4 h [1]: 1100 ng/mL; concentration at 6 h [1]: 300 ng/mL; AUC [1]: 26200 ng·h/mL
C=C[C@@H](N)C(=O)N[C@@H]1C(=O)N2[C@@H]1SC(C)(C)[C@@H]2C(=O)O [Example 1, 6β-(D-2-Aminobut-3-enamido)penicillanic acid] | 0.03 (≈ 0.1 µM) | 8 (≈ 26.7 µM) | concentration at 0.25 h [1]: 4000 ng/mL; concentration at 0.5 h [1]: 14700 ng/mL; concentration at 1 h [1]: 32700 ng/mL; concentration at 2 h [1]: 15700 ng/mL; concentration at 4 h [1]: 2400 ng/mL; concentration at 6 h [1]: 800 ng/mL; AUC [1]: 59700 ng·h/mL
C=C(c1ccccc1)[C@@H](N)C(=O)N[C@@H]1C(=O)N2[C@@H]1SC(C)(C)[C@@H]2C(=O)O [Example 4 (D-stereoisomer), 6β-(D-2-amino-3-phenylbut-3-enamido)penicillanic acid] | < 0.03 | 8 (≈ 21.3 µM) | –
CC1(C)S[C@@H]2[C@H](NC(=O)[C@H](N)C=C(Cl)Cl)C(=O)N2[C@H]1C(=O)O [Example 5 (D-stereoisomer), 6β-(D-2-amino-4,4-dichlorobut-3-enamido)penicillanic acid] | < 0.03 | 2 (≈ 5.43 µM) | Total CD50 (S.agalactiae 2798 [2]): 0.6 mg/kg; ED50 (S.agalactiae 2798 [2]; Streptococcus agalactiae, 2798, po, read-out: Total CD50): 0.9 mg/kg; ED50 (E.coli 96 R- [3]; po): 40 mg/kg; ED50 (E.coli 96 R- [3]; sc): 22 mg/kg; ED50 (S.aureus Smith [4]; Staphylococcus aureus, sc, read-out: Total CD50): 0.08 mg/kg; Total CD50 (S.aureus Smith [4]; s.c.): 0.09 mg/kg; MIC (S.agalactiae 2798 [5]): 0.06 µg/mL (≈ 0.163 µM); MIC (E.coli 96 R- [6]): 2 µg/mL (≈ 5.43 µM); MIC (S.aureus Smith [7]): 0.06 µg/mL (≈ 0.163 µM); concentration at 0.25 h [1]: 20700 ng/mL; concentration at 0.5 h [1]: 28800 ng/mL; concentration at 1 h [1]: 24300 ng/mL; concentration at 2 h [1]: 16800 ng/mL; concentration at 4 h [1]: 2400 ng/mL; concentration at 6 h [1]: 1400 ng/mL; AUC [1]: 63000 ng·h/mL
C=C(C)[C@@H](N)C(=O)N[C@@H]1C(=O)N2C(C(=O)O)=C(COC(C)=O)CS[C@H]12 [Example 7, 7,β-(D-2-Amino-3-methylbut-3-enamido)cephalosporanic acid] | 0.25 (≈ 0.677 µM) | 32 (≈ 86.6 µM) | –
C=C(C)[C@@H](N)C(=O)N[C@@H]1C(=O)N2C(C(=O)O)=C(C)CS[C@H]12 [Example 8, 7,β-[D-2-Amino-3-methylbut-3-enamido]-3-desacetoxy cephalosporanic acid] | 2 (≈ 6.42 µM) | – | –
C=C(CC)[C@@H](N)C(=O)N[C@@H]1C(=O)N2[C@@H]1SC(C)(C)[C@@H]2C(=O)O [Example 9 (D-stereoisomer), 6,β-(D-2-amino-3-ethylbut-3-enamido)penicillanic acid] | < 0.03 | 2 (≈ 6.11 µM) | –
C/C=C(\C)[C@@H](N)C(=O)N[C@@H]1C(=O)N2[C@@H]1SC(C)(C)[C@@H]2C(=O)O [Example 10 (D-stereoisomer), 6β-(D-2-amino-3-methylpent-3(E)-enamido)penicillanic acid] | < 0.06 | 2 (≈ 6.11 µM) | –
C/C=C/[C@@H](N)C(=O)N[C@@H]1C(=O)N2[C@@H]1SC(C)(C)[C@@H]2C(=O)O [Example 11 (D-stereoisomer), 6β-(D-2-Amino-pent-3(E)-enamido)penicillanic acid] | < 0.06 | 8 (≈ 25.5 µM) | –
C=C/C=C(\C)[C@@H](N)C(=O)N[C@@H]1C(=O)N2[C@@H]1SC(C)(C)[C@@H]2C(=O)O [Example 12 (D-stereoisomer), 6β-(D-2-amino-3-methylhex-3(E), 5-dienamido)penicillanic acid] | 0.06 (≈ 0.177 µM) | 2 (≈ 5.89 µM) | –
CC/C=C/[C@@H](N)C(=O)N[C@@H]1C(=O)N2[C@@H]1SC(C)(C)[C@@H]2C(=O)O [Example 13 (D-stereoisomer), 6p-(D-2-aminohex-3(E)-enamido)penicillanic acid] | < 0.06 | 4 (≈ 12.2 µM) | –
CC1(C)S[C@@H]2[C@H](NC(=O)[C@H](N)/C=C/C3CCCCC3)C(=O)N2[C@H]1C(=O)O [Example 14 (D-stereoisomer), 6β-(D-2-amino-4-cyclohexylbut-3(E)-enamido)penicillanic acid] | < 0.06 | 16 (≈ 41.9 µM) | –
CC1(C)S[C@@H]2[C@H](NC(=O)[C@H](N)/C=C/c3ccccc3)C(=O)N2[C@H]1C(=O)O [Example 15 (D-stereoisomer), 6p-(D-2-amino-4-phenylbut-3(E)enamido)penicillanic acid] | < 0.06 | 16 (≈ 42.6 µM) | –
CC1(C)S[C@@H]2[C@H](NC(=O)C(N)/C=C/c3ccc(Cl)cc3)C(=O)N2[C@H]1C(=O)O (stereo partly drawn) [Example 16, 6β-[D,L-2--Amino-4-(4-chlorophenyl)but-3(E)-enamido]penicillanic acid] | < 0.06 | 16 (≈ 39 µM) | –
C=C([C@@H](N)C(=O)N[C@@H]1C(=O)N2[C@@H]1SC(C)(C)[C@@H]2C(=O)O)C(F)(F)F [Example 17 (D-stereoisomer), 6,P-(D-2-amino-3-trifluoromethylbut-3-enamido)penicillanic acid] | < 0.06 | 4 (≈ 10.9 µM) | –
C=C(c1cccs1)[C@@H](N)C(=O)N[C@@H]1C(=O)N2[C@@H]1SC(C)(C)[C@@H]2C(=O)O [Example 18 (D-stereoisomer), 6β-(D-2-amino-3-thien-2-yl-but-3-enamido)penicillanic acid] | 0.06 (≈ 0.157 µM) | 16 (≈ 41.9 µM) | –
CC1(C)S[C@@H]2[C@H](NC(=O)C(N)/C(=C/Cl)c3cccs3)C(=O)N2[C@H]1C(=O)O (stereo partly drawn) [Example 19, 6β-(D,L-2-Amino-4-chloro-3-thien-2-ylbut-3(Z)-enamido)penicillanic acid] | < 0.03 | 16 (≈ 38.5 µM) | –
CC1(C)S[C@@H]2[C@H](NC(=O)C(N)/C(=C\Cl)c3cccs3)C(=O)N2[C@H]1C(=O)O (stereo partly drawn) [Example 20, 6B-(D,L-2-Amino-4-chloro-3-thien-2-ylbut-3(E)-enamido)penicillanic acid] | 0.06 (≈ 0.144 µM) | 32 (≈ 76.9 µM) | –
C/C(=C\Cl)[C@@H](N)C(=O)N[C@@H]1C(=O)N2[C@@H]1SC(C)(C)[C@@H]2C(=O)O [Example 21 (D-stereoisomer), 6β-(D-2-Amino-4-chloro-3-methylbut-3(E)-enamido)-penicillanic acid] | 0.06 (≈ 0.173 µM) | 4 (≈ 11.5 µM) | –
C/C(=C/Cl)C(N)C(=O)N[C@@H]1C(=O)N2[C@@H]1SC(C)(C)[C@@H]2C(=O)O (stereo partly drawn) [Example 22, 6β-(D,L-2-Amino-4-chloro-3-methylbut-3(Z)-enamido) penicillanic acid] | 0.12 (≈ 0.345 µM) | 8 (≈ 23 µM) | –
CC(=O)OC/C=C/[C@@H](N)C(=O)N[C@@H]1C(=O)N2[C@@H]1SC(C)(C)[C@@H]2C(=O)O [Example 23, 6β-[5-Acetoxy-D-2-aminopent-3(E)-enamido] penicillanic acid] | 0.12 (≈ 0.323 µM) | 32 (≈ 86.2 µM) | –
